{
  "source": "BigSolDB 2.1",
  "data": [
    {"smiles": "CC1(C)CC(NCCCCCCNC2CC(C)(C)NC(C)(C)C2)CC(C)(C)N1", "values": [
      {"measurement": "solubility (mole fraction)", "setting": "in acetone, 273.15 K", "result": 0.00859},
      {"measurement": "solubility (mole fraction)", "setting": "in acetone, 278.15 K", "result": 0.013},
      {"measurement": "solubility (mole fraction)", "setting": "in acetone, 283.15 K", "result": 0.0191},
      {"measurement": "solubility (mole fraction)", "setting": "in acetone, 288.15 K", "result": 0.029},
      {"measurement": "solubility (mole fraction)", "setting": "in acetone, 293.15 K", "result": 0.0467},
      {"measurement": "solubility (mole fraction)", "setting": "in acetone, 298.15 K", "result": 0.0737},
      {"measurement": "solubility (mole fraction)", "setting": "in acetone, 303.15 K", "result": 0.117},
      {"measurement": "solubility (mole fraction)", "setting": "in acetonitrile, 273.15 K", "result": 0.00115},
      {"measurement": "solubility (mole fraction)", "setting": "in acetonitrile, 278.15 K", "result": 0.00183},
      {"measurement": "solubility (mole fraction)", "setting": "in acetonitrile, 283.15 K", "result": 0.00233},
      {"measurement": "solubility (mole fraction)", "setting": "in acetonitrile, 288.15 K", "result": 0.00371},
      {"measurement": "solubility (mole fraction)", "setting": "in acetonitrile, 293.15 K", "result": 0.00537},
      {"measurement": "solubility (mole fraction)", "setting": "in acetonitrile, 298.15 K", "result": 0.00821},
      {"measurement": "solubility (mole fraction)", "setting": "in acetonitrile, 303.15 K", "result": 0.0139},
      {"measurement": "solubility (mole fraction)", "setting": "in ethyl acetate, 273.15 K", "result": 0.0288},
      {"measurement": "solubility (mole fraction)", "setting": "in ethyl acetate, 278.15 K", "result": 0.0396},
      {"measurement": "solubility (mole fraction)", "setting": "in ethyl acetate, 283.15 K", "result": 0.056},
      {"measurement": "solubility (mole fraction)", "setting": "in ethyl acetate, 288.15 K", "result": 0.0776},
      {"measurement": "solubility (mole fraction)", "setting": "in ethyl acetate, 293.15 K", "result": 0.108},
      {"measurement": "solubility (mole fraction)", "setting": "in ethyl acetate, 298.15 K", "result": 0.145},
      {"measurement": "solubility (mole fraction)", "setting": "in ethyl acetate, 303.15 K", "result": 0.193},
      {"measurement": "solubility (mole fraction)", "setting": "in isobutyl acetate, 273.15 K", "result": 0.0497},
      {"measurement": "solubility (mole fraction)", "setting": "in isobutyl acetate, 278.15 K", "result": 0.0625},
      {"measurement": "solubility (mole fraction)", "setting": "in isobutyl acetate, 283.15 K", "result": 0.0831},
      {"measurement": "solubility (mole fraction)", "setting": "in isobutyl acetate, 288.15 K", "result": 0.108},
      {"measurement": "solubility (mole fraction)", "setting": "in isobutyl acetate, 293.15 K", "result": 0.139},
      {"measurement": "solubility (mole fraction)", "setting": "in isobutyl acetate, 298.15 K", "result": 0.178},
      {"measurement": "solubility (mole fraction)", "setting": "in isobutyl acetate, 303.15 K", "result": 0.226},
      {"measurement": "solubility (mole fraction)", "setting": "in isopropyl acetate, 273.15 K", "result": 0.0408},
      {"measurement": "solubility (mole fraction)", "setting": "in isopropyl acetate, 278.15 K", "result": 0.0549},
      {"measurement": "solubility (mole fraction)", "setting": "in isopropyl acetate, 283.15 K", "result": 0.0736},
      {"measurement": "solubility (mole fraction)", "setting": "in isopropyl acetate, 288.15 K", "result": 0.0983},
      {"measurement": "solubility (mole fraction)", "setting": "in isopropyl acetate, 293.15 K", "result": 0.128},
      {"measurement": "solubility (mole fraction)", "setting": "in isopropyl acetate, 298.15 K", "result": 0.165},
      {"measurement": "solubility (mole fraction)", "setting": "in isopropyl acetate, 303.15 K", "result": 0.212},
      {"measurement": "solubility (mole fraction)", "setting": "in methyl acetate, 273.15 K", "result": 0.0224},
      {"measurement": "solubility (mole fraction)", "setting": "in methyl acetate, 278.15 K", "result": 0.0321},
      {"measurement": "solubility (mole fraction)", "setting": "in methyl acetate, 283.15 K", "result": 0.0448},
      {"measurement": "solubility (mole fraction)", "setting": "in methyl acetate, 288.15 K", "result": 0.0663},
      {"measurement": "solubility (mole fraction)", "setting": "in methyl acetate, 293.15 K", "result": 0.102},
      {"measurement": "solubility (mole fraction)", "setting": "in methyl acetate, 298.15 K", "result": 0.142},
      {"measurement": "solubility (mole fraction)", "setting": "in methyl acetate, 303.15 K", "result": 0.185},
      {"measurement": "solubility (mole fraction)", "setting": "in n-propyl acetate, 273.15 K", "result": 0.0341},
      {"measurement": "solubility (mole fraction)", "setting": "in n-propyl acetate, 278.15 K", "result": 0.046},
      {"measurement": "solubility (mole fraction)", "setting": "in n-propyl acetate, 283.15 K", "result": 0.063},
      {"measurement": "solubility (mole fraction)", "setting": "in n-propyl acetate, 288.15 K", "result": 0.084},
      {"measurement": "solubility (mole fraction)", "setting": "in n-propyl acetate, 293.15 K", "result": 0.113},
      {"measurement": "solubility (mole fraction)", "setting": "in n-propyl acetate, 298.15 K", "result": 0.152},
      {"measurement": "solubility (mole fraction)", "setting": "in n-propyl acetate, 303.15 K", "result": 0.2}
    ]}
  ]
}
